According to patent publication US20230286973A1, “PROTEIN SECRETION INHIBITORS” (KEZAR LIFE SCIENCES, priority 2020, published 2023):
“And” between values parts separate entries of the source, which are not always exact repeats. Equal values may be shown once. Read-outs that look alike come from different tables or passages of the source.

What was measured:
[1] = system: PD1-ss+10aa/Gaussia Luciferase; assay: Dox-Induced PD1-ss-Gluc Assay; format: cell-based; settings: 24 hr Dox induction, 293FRT/TO cells, read-out: 24 hr Dox Inducible PD1ssGluc 293FRT/TO: Mean IC50
Source text: Flp-In 293 T-REx™ cells were transfected with pcDNA™5/FRT/TO plasmid inserted with cDNA encoding Gaussia Luciferase fused to the 3′ end of cDNA encoding PD1 signal sequence plus 10 amino acids (N-[…]-C) (SEQ ID NO: 1). Transfected cells were selected for resistance to the selectable markers Hygromycin and Blasticidin to create a stable cell line that contained the PD1-ss+10aa/Gaussia Luciferase cDNA insert whose expression was regulated under the T-REx™ system. The day before assay, cells were trypsinized and plated in 384-well tissue culture plates. The next day, compound dilutions in DMSO/media containing doxycycline were added to the wells and incubated at 37° C., 5% CO2.
(§1) For chemical structures that include one or more stereoisomers, but are illustrated without indicating stereochemistry, the assay data refers to a mixture of stereoisomers.

[2] = system: multiple myeloma cell line U266B1; assay: U266 Cell Viability Assay; format: cell-based, human; settings: Homo sapiens, U-266, 48 h, U266B1 cells, Celltiter-Glo
Protocol: (§2) The human multiple myeloma cell line U266B1 was cultured in RPMI 1640 media supplemented with 10% fetal bovine serum, 2 mM Glutamine, and 1× Penicillin/Streptomycin. Cells were plated in 384-well tissue culture plates and treated with compound dilutions in DMSO/media. Plates were incubated at 37° C., 5% CO2 for 48 hours. After 48 hours, Celltiter-Glo® (Promega) was added to each well and luciferase signal was quantified using Tecan Infinite M1000 Pro for cell viability determination.
as §1

[3] = Liver Microsome Stability Assay (human); settings: human liver microsomes, with NADPH, 1.0 uM compound
Protocol: (§4) Stability of a compound was assessed in the presence of liver microsomes from various sources—mouse, rat, monkey and human liver microsomes. 1.0 uM compound, 0.4% DMSO in 0.1 M Potassium Phosphate with 1.0 mg/mL liver microsomes, were incubated at 37° C. with or without 1 mM NADPH. The samples were quenched at 0, and 30 minutes.

[4] = Liver Microsome Stability Assay (rat); settings: rat liver microsomes, with NADPH, 1.0 uM compound
Protocol: as §4

[5] = system: multiple myeloma cell line NCI-H929; assay: H929 Cell Viability Assay; format: cell-based, human; settings: NCI-H929 cells, Celltiter-Glo
Protocol: as §2, with “NCI-H929” for “U266B1”, “cultured in Advanced RPMI 1640 media (Gibco®) supplemented with 6% fetal bovine serum, 2 mM Glutamine, and 1× Penicillin/Streptomycin. On the day of assay, cells were resuspended” for “cultured”, “Penicillin/Streptomycin and” for “Penicillin/Streptomycin. Cells were”
as §1

[6] = system: IL-2-FL/Gaussia Luciferase; assay: Dox Induced IL2-FL-Gluc Assay; format: cell-based; settings: for IC50: 24 hr Dox induction, 293FRT/TO cells, read-out: 24 hr Dox Inducible IL2FLGluc 293FRT/TO: Mean IC50; for 24 hr Dox Inducible IL2FLGluc 293FRT/TO: IL2/PD1: ratio of IL2FLGluc IC50 to PD1ssGluc IC50
Source text: (§3) Flp-In 293 T-REx™ cells were transfected with pcDNA™5/FRT/TO plasmid inserted with cDNA encoding Gaussia Luciferase fused to the 3′ end of cDNA encoding full length IL-2 (amino acids 1-153). Transfected cells were selected for resistance to the selectable markers Hygromycin and Blasticidin to create a stable cell line that contained the IL-2-FL/Gaussia Luciferase cDNA insert whose expression was regulated under the T-REx™ system. The day before assay, cells were trypsinized and plated in 384-well tissue culture plates. The next day, compound dilutions in DMSO/media containing doxycycline were added to the wells and incubated at 37° C., 5% CO2.
as §1

[7] = Liver Microsome Stability Assay (monkey); settings: monkey liver microsomes, with NADPH, 1.0 uM compound
Protocol: as §4

[8] = Liver Microsome Stability Assay (mouse); settings: mouse liver microsomes, with NADPH, 1.0 uM compound
Protocol: as §4

[9] = system: TNFα-FL/Gaussia Luciferase; assay: Dox Induced TNFα-FL-Gluc Assay; format: cell-based
Source text: as §3, with “TNFα” for “IL-2”, “1-233).” for “1-153).”, “TNFα-FL/Gaussia” for “IL-2-FL/Gaussia”
as §1

[10] = '<=>' given where both are I.A.

Row | SMILES | IC50 ([1]; mean) | EC50 [2] [µM] | Liver Microsome Stability (Multiple Species): Human - % Remaining after 30 min w/NADPH [3] | Liver Microsome Stability (Multiple Species): Rat - % Remaining after 30 min w/NADPH [4] | EC50 ([5]; Homo sapiens, NCI-H929, 48 h) [µM] | IC50 ([6]; mean) [µM] | 24 hr Dox Inducible IL2FLGluc 293FRT/TO: IL2/PD1 [6, 10] | Liver Microsome Stability (Multiple Species): Monkey - % Remaining after 30 min w/NADPH [7] [%] | Liver Microsome Stability (Multiple Species): Mouse - % Remaining after 30 min w/NADPH [8] | EC50 ([5]; 48 hr) [µM] | IC50 ([9]; 24 hr Dox induction, 293FRT/TO cells, mean, read-out: 24 hr Dox Inducible TNFaFLGluc 293FRT/TO: Mean IC50) [µM] | 24 hr Dox Inducible TNFaFLGluc 293FRT/TO: TNF/PD1 ([9]; ratio of TNFaFLGluc IC50 to PD1ssGluc IC50, '<=>' given where both are I.A.) | IC50 [1] [µM] | IC50 [6] [µM] | 24 hr Dox Inducible IL2FLGluc 293FRT/TO: IL2/PD1 [6]
1 | O=C(Nc1nc([C@H]2CCCN2c2ccccc2)cs1)c1cccn1Cc1cccnc1 [Compound E20, (R)-N-(4-(1-phenylpyrrolidin-2-yl)thiazol-2-yl)-1-(pyridin-3-ylmethyl)-1H-pyrrole-2-carboxamide] | 2.52 µM | 23.3 | 0.96% | 0.14% | 24.6 | 5 | 2 | 0.62 | 0.82% |  |  |  |  |  | 
2 | CO[C@@H](CC#N)Cn1cccc1C(=O)Nc1nc([C@H]2CCCN2c2ccccc2)cs1 [Compound C97, 1-((S)-3-cyano-2-methoxypropyl)-N-(4-((R)-1-phenylpyrrolidin-2-yl)thiazol-2-yl)-1H-pyrrole-2-carboxamide] | 3 µM and 4.65 µM | > 25 | 4.81% and 6.52% | 5.97% and 7.43% | 25 |  | 2.1 and > 3.6 |  | 3.9% and 3.33% | 23.6 | > 25 | > 8.34 and > 5.37 |  |  | 
3 | CC1=NC(C)(/C=C/c2csc(NC(=O)c3cccn3Cc3ccncc3)n2)CO1 (stereo not drawn) [Compound B16] |  | > 25 |  | 137% | > 25 |  |  | 110 | 196% |  |  |  | 3.99 | > 25 | >6.3
4 | N#Cc1ccc(Cn2cccc2C(=O)Nc2nc([C@H]3CCCN3c3ccccc3)cs2)cc1 [Compound C50, (R)-1-(4-cyanobenzyl)-N-(4-(1-phenylpyrrolidin-2-yl)thiazol-2-yl)-1H-pyrrole-2-carboxamide] | 3.14 µM | > 25 | 33.8% | 15.1% | > 25 | 2.06 | 0.66 | 33.4 | 54.5% |  |  |  |  |  | 
5 | O=C(Nc1nc([C@H]2CCCN2c2ccccc2)cs1)c1cccn1Cc1ccnc(F)c1 [Compound E26, (R)-1-((2-fluoropyridin-4-yl)methyl)-N-(4-(1-phenylpyrrolidin-2-yl)thiazol-2-yl)-1H-pyrrole-2-carboxamide] | 0.00953 µM | > 25 |  |  | 0.762 | 0.0229 | 2.4 |  |  |  |  |  |  |  | 
6 | O=C(O)c1ccc(N2CCC[C@@H]2c2csc(NC(=O)c3cccn3Cc3ccncc3)n2)cc1 [Compound A13] |  | > 25 | 1.91% | 5.37% | > 25 |  |  | 0.39 | 6.8% |  |  |  | 20.7 | > 25 | >1.2
7 | N#Cc1cccc(Cn2cccc2C(=O)Nc2nc([C@H]3CCCN3c3ccccc3)cs2)c1 [Compound C49, (R)-1-(3-cyanobenzyl)-N-(4-(1-phenylpyrrolidin-2-yl)thiazol-2-yl)-1H-pyrrole-2-carboxamide] | 0.909 µM | > 25 | 1.94% | 2.9% | > 25 | 1.64 | 1.8 | 9.17 | 29.1% |  |  |  |  |  | 
8 | CC(C)c1ccc(/C=C/c2csc(NC(=O)c3cccn3Cc3ccncc3)n2)nc1 [Compound E57, (E)-N-(4-(2-(5-isopropylpyridin-2-yl)vinyl)thiazol-2-yl)-1-(pyridin-4-ylmethyl)-1H-pyrrole-2-carboxamide] | 0.00967 µM | 9.51 |  |  | 6.9 | 2.16 | 220 |  |  |  |  |  |  |  | 
9 | CC(C)c1cccnc1/C=C/c1csc(NC(=O)c2cccn2Cc2ccncc2)n1 [Compound E56, (E)-N-(4-(2-(3-isopropylpyridin-2-yl)vinyl)thiazol-2-yl)-1-(pyridin-4-ylmethyl)-1H-pyrrole-2-carboxamide] | 0.0916 µM | > 25 |  |  | 21.5 | 4.36 | 48 |  |  |  |  |  |  |  | 
10 | CC(CC#N)Cn1cccc1C(=O)Nc1nc([C@H]2CCCN2c2ccccc2)cs1 (stereo partly drawn) [Compound C20, 1-(3-cyano-2-methylpropyl)-N-(4-((R)-1-phenylpyrrolidin-2-yl)thiazol-2-yl)-1H-pyrrole-2-carboxamide] |  |  | 15.3% | 10.6% |  |  |  | 15 | 4.75% |  |  |  |  |  | 
11 | N#CCC1(Cn2cccc2C(=O)Nc2nc([C@H]3CCCN3c3ccccc3)cs2)COC1 [Compound C19, (R)-1-((3-(cyanomethyl)oxetan-3-yl)methyl)-N-(4-(1-phenylpyrrolidin-2-yl)thiazol-2-yl)-1H-pyrrole-2-carboxamide] |  |  | 3.59% | 3.9% |  |  |  | 8.4 | 3.48% |  |  |  |  |  | 
12 | O=C(Nc1nc([C@H]2CCCN2C2COC2)cs1)c1cccn1Cc1ccncc1 [Compound E49, (R)-N-(4-(1-(oxetan-3-yl)pyrrolidin-2-yl)thiazol-2-yl)-1-(pyridin-4-ylmethyl)-1H-pyrrole-2-carboxamide] |  |  | 0.09% | 1.92% |  |  |  | 0.09 | 1.59% |  |  |  |  |  | 
